According to patent US5550109A, “Inducible defensin peptide from mammalian epithelia” (priority 1994, dated 1996):
Bridges are numbered along the chain shown (N, C = ends). Where no end group is shown, it is not given here. [ ]: non-standard residue; d: D form. pGlu = O=C1CC[C@@H](C(=O)O)N1

How the values were obtained:
Test in all cases: Minimum inhibitory concentration, 96 well microtitre plate
Format in all cases: cell-based
Candida albicans (14053) = details: Candida albicans (ATCC 14053); 1/4 strength TSB, 1×10^5 /ml
Method: (§1) Antimicrobial activity was determined during the purification process. Approximately 2.5 ml fractions from the P-30 gel filtration column were assessed after drawing fractions and taking an aliquot of the fraction and spotting that fraction on a radial diffusion plate as described by Zasloff, M. (Proc. Natl. Acad. Sci USA 84: 5449-5453, 1987) against E. coli D31 or fungal pathogens such as Candida albicans, Candida tropicalis, or Staphylococcus aureus. (See also, Zasloff et al., Proc. Natl. Acad. Sci. USA 85: 910-913, 1988.) (FIGS. 1B and 1C.) Briefly, the minimal inhibitory concentrations (MIC's) were assessed using a 96 well microtitre plate (Corning Glass Works, Corning, N.Y.). Microorganisms were grown in log phase at 1/4 strength tryptics soy broth (TSB) at a density of 1×10^5 /ml. The assays used 1/4 strength TSB. For each organism, dilutions of peptide were made ranging from >500 μg/ml to 1 μg/ml using 1/4 strength TSB as a dilution buffer. Zones of bacterial growth or lack of growth were assessed under the microscope. MIC's were calculated based the lowest concentration of peptide that inhibited growth.

[1] = system: Candida tropicalis (13803); details: Candida tropicalis (ATCC 13803); 1/4 strength TSB, 1×10^5 /ml
Method: as §1

Escherichia coli (D31) = details: 1/4 strength TSB, 1×10^5 /ml
Method: as §1

[2] = system: Pseudomonas aeruginosa (27853); details: Pseudomonas aeruginosa (ATCC 27853); 1/4 strength TSB, 1×10^5 /ml
Method: as §1

[3] = system: Staphylococcus aureus (29213); details: Staphylococcus aureus (ATCC 29213); 1/4 strength TSB, 1×10^5 /ml
Method: as §1

Substance | Minimum Inhibitory Concentration (Candida albicans (14053)) [µg/mL] | Minimum Inhibitory Concentration [1] [µg/mL] | Minimum Inhibitory Concentration (Escherichia coli (D31)) [µg/mL] | Minimum Inhibitory Concentration [2] [µg/mL] | Minimum Inhibitory Concentration [3] [µg/mL]
Magainin II-amide | 50 to 100 | 13 to 25 | 13 to 25 | 13 to 25 | 50 to 100
[pGlu]GVRNSQSCRRNKGICVPIRCPGSMRQIGTCLGAQVKCCRRK (disulfide 9-38, 16-31, 21-39) [LAP, lingual antimicrobial peptide] | 32 to 63 | 16 to 32 | 16 to 32 | 63 to 125 | 63 to 125
